Results on five molecules are retold here after ChEMBL document CHEMBL4376877, “Stepwise Evolution of Fragment Hits against MAPK Interacting Kinases 1 and 2” (J Med Chem, 2020).

Series [1] can be described thus: Thermodynamic solubility of compound at pH 7.4. Type of series: physicochemical. The following applies: buffer, read-out: Therm_solubility.
A short description of series [2]: Clearance in mouse liver microsomes. The class given is ADME, Microsome. As to conditions: read-out: CLH. (Liver microsomes are a subcellular fraction often used to study metabolism.)
A short description of series [3]: Permeability across basolateral side to apical side of membrane in human Caco2 cells. Type of series: ADME, cell-based. As to conditions: Caco-2, read-out: permeability. A general note: Caco-2 monolayers are a common model of the intestinal barrier.
The nature of series [4]: Clearance in human liver microsomes. As to conditions: read-out: CLH. Type of series: ADME, Microsome.
Series [5] is described as follows: Permeability across apical side to basolateral side of membrane in human Caco2 cells. As to conditions: Caco-2, read-out: permeability. The class given is ADME, cell-based.
Series [6] can be described thus: Oral bioavailability in mouse at 5 mg/kg. Type of series: ADME, organism-based. The following applies: in vivo.
Series [7] is described as follows: Terminal elimination half-life in mouse at 5 mg/kg, po. The class given is ADME, organism-based. The following applies: in vivo, read-out: beta t1/2 (converted).
The nature of series [8]: AUC (0 to infinity) in mouse at 5 mg/kg, po. Further details: dose 5 mg/kg, route oral, time infinity. The class given is ADME, organism-based. As to conditions: in vivo.
Series [9] can be described thus: Tmax in mouse at 5 mg/kg, po. As to conditions: in vivo. The class given is ADME, organism-based.
Series [10] in a line: Apparent volume of distribution in mouse at 5 mg/kg, po. The class given is ADME, organism-based. As to conditions: in vivo.
The nature of series [11]: AUC (0 to infinity) in mouse at 1 mg/kg, iv. The class given is ADME, organism-based. Set-up: dose 1 mg/kg, time infinity, route intravenous. The following applies: in vivo.
A short description of series [12]: Apparent volume of distribution in mouse at 1 mg/kg, iv. Type of series: ADME, organism-based. The following applies: in vivo, read-out: Vz.
The nature of series [13]: Cmax in mouse at 5 mg/kg, po measured after 10 mins. The class given is ADME, organism-based. Set-up: dose 5 mg/kg, route oral. As to conditions: in vivo.
The nature of series [14]: Initial plasma concentration in mouse at 1 mg/kg, iv. The class given is ADME, organism-based.
Series [15] is described as follows: Clearance in mouse at 5 mg/kg, po. Type of series: ADME, organism-based. The following applies: in vivo.
Series [16] can be described thus: AUC (0 to 8 hrs) in mouse at 5 mg/kg, po measured up to 8 hrs. Type of series: ADME, organism-based. Further details: dose 5 mg/kg, time < 8 hr, route oral. As to conditions: in vivo.
Series [17] is described as follows: Terminal elimination half life in mouse at 1 mg/kg, iv. Type of series: ADME, organism-based. The following applies: in vivo, read-out: beta t1/2 (converted).
The nature of series [18]: Clearance in mouse at 1 mg/kg, iv. Type of series: ADME, organism-based. The following applies: in vivo.
Series [19] is described as follows: AUC (0 to 8 hrs) in mouse at 1 mg/kg, iv measured up to 8 hrs. Type of series: ADME, organism-based. Further details: time < 8 hr, dose 1 mg/kg, route intravenous. The following applies: in vivo.
Series [20] is described as follows: Cmax in mouse at 5 mg/kg, po measured after 0.5 hrs. Type of series: ADME, organism-based. Further details: dose 5 mg/kg, route oral. The following applies: in vivo.

In brackets after ≈: the same amount, converted by molar mass. A value given as a limit tells only on which side of the number the result lay.

Regarding `Cc1c(-c2cncc(-c3ccc(C(N)=O)c(OC(C)C)c3)c2)cnn1C`, the solubility thermodynamic in [1] amounted to 0.0073 mg/mL (≈ 20.8 µM). The results for the microsomal CLint in series [2] and in [4] were 25.1 µL/min/mg and 7.9 µL/min/mg, respectively. Also, the Papp B→A in series [3] came out at 210 nm/s. The Papp A→B in series [5] was found to be 270 nm/s.
`Cc1n[nH]c(C)c1-c1cncc(-c2ccc(C(N)=O)c(OC(C)C)c2)c1`: in series [1], the solubility thermodynamic is 0.01 mg/mL (≈ 28.5 µM). Moreover, the microsomal CLint in series [2] stood at 62 µL/min/mg. In [3], the Papp B→A came out at 410 nm/s. In [5], the Papp A→B worked out at 62 nm/s.
A word on the bioavailability: it is the share of a dose that reaches the circulation, judged against a reference dose that is usually intravenous. Lower therefore signals poor availability. As a reminder, the AUC(0-inf) is the area under the concentration-time curve extrapolated to infinity. A low value points to low exposure. By Tmax is commonly meant the time from dosing to the highest level. By Cmax is commonly meant the highest concentration seen after dosing. The term CL/F denotes the apparent clearance, not corrected for the fraction that reaches the circulation. A word on the AUC(0-t): it is the area under the concentration-time curve up to a stated or last time point. A lower AUC(0-t) goes with low exposure. Broadly, the clearance is the rate of elimination divided by the concentration. On to `CC(C)Oc1cc(-c2cccnc2)ccc1C(N)=O`, for which the solubility thermodynamic in [1] was found to be 0.045 mg/mL (≈ 176 µM). The microsomal CLint in series [2] was 9.4 µL/min/mg; in [4], 5.8 µL/min/mg. In series [6], this molecule yielded a bioavailability of 61%. Also, the half-life in [7] was 1.6 h; in [17], 3.4 h. In addition, the AUC(0-inf) was determined as 0.494 µg·h/mL in [8] and 0.166 µg·h/mL in series [11]. Further, in series [9], the Tmax came out at 0.17 h. Besides, the Vz in [10] stood at 23 L/kg. Moreover, the Vd in series [12] came to 30 L/kg. For the same molecule, the Papp B→A in [3] came to 200 nm/s. The concentration in series [13] peaked (Cmax) at 0.615 µg/mL. Also, the C0 in [14] was 0.678 µg/mL. In series [15], this molecule had a CL/F of 10.1 L/h/kg. In addition, the AUC(0-t) at 8 h in series [16] is 0.488 µg·h/mL; in series [19] it was 0.16 µg·h/mL. The clearance in [18] is 6 L/h/kg. Also, the Papp A→B in series [5] is 320 nm/s.
For `Cc1[nH]ncc1-c1cncc(-c2ccc(C(N)=O)c(OC(C)C)c2)c1`, the solubility thermodynamic in [1] was 0.011 mg/mL (≈ 32.7 µM). In addition, the values for the microsomal CLint in series [2] and in [4] were 251 µL/min/mg and 18 µL/min/mg, respectively. In addition, the Papp B→A in [3] was 330 nm/s. Also, in [5], the Papp A→B turned out to be 83 nm/s.
On to `CC(C)Oc1cc(-c2cncc(-c3cnn(C4COC4)c3)c2)ccc1C(N)=O`, for which the solubility thermodynamic in [1] came to 0.028 mg/mL (≈ 74 µM). For the same molecule, the values for the microsomal CLint in [2] and in series [4] were 3.1 µL/min/mg and less than 10 µL/min/mg, respectively. Further, the bioavailability in series [6] is 73%. Moreover, the half-life in series [7] was 2.8 h; in series [17], 2.2 h. For the same molecule, the figures for the AUC(0-inf) in series [8] and in series [11] were 2.36 µg·h/mL and 0.579 µg·h/mL, respectively. In [9], the Tmax turned out to be 0.5 h. Further, the Vz in series [10] was 8.7 L/kg. Besides, the Vd in series [12] amounted to 5.5 L/kg. For the same molecule, the Papp B→A in series [3] was found to be 250 nm/s. Besides, the CL/F in [15] is 2.1 L/h/kg. In addition, in series [20], the Cmax is 0.658 µg/mL. In addition, the AUC(0-t) at 8 h in series [16] came to 2.08 µg·h/mL; in [19], 0.568 µg·h/mL. Also, in series [18], the clearance was 1.7 L/h/kg. Also, the Papp A→B in series [5] stood at 100 nm/s.
